Test results reported in ChEMBL document CHEMBL4665648, “Potent and selective inhibitors of receptor-interacting protein kinase 1 that lack an aromatic back pocket group” (Bioorg Med Chem Lett, 2019).

Legend:
[1] = biological target: Ephrin type-B receptor 1 (Homo sapiens) (UniProt P54762); experiment: Inhibition of recombinant human GST-tagged EPHB1 (613 to 881 residues) expressed in baculovirus expression system using Tyr 02 as substrate at 10 uM incubated for 60 mins by Z'-Lyte assay relative to control
[2] = biological target: Serine/threonine-protein kinase Chk2 (Homo sapiens) (UniProt O96017); experiment: Inhibition of recombinant human His-tagged full length CHK2 expressed in baculovirus expression system using Ser/Thr 07 as substrate at 10 uM incubated for 60 mins by Z'-Lyte assay relative to control
[3] = biological target: Cyclin-dependent kinase 5/CDK5 activator 1 (Homo sapiens) (UniProt Q00535+Q15078); experiment: Inhibition of recombinant human His/GST-tagged full length CDK5/p25 expressed in baculovirus expression system using Ser/Thr 12 as substrate at 10 uM incubated for 60 mins by Z'-Lyte assay relative to control
[4] = biological target: Fibroblast growth factor receptor 4 (Homo sapiens) (UniProt P22455); experiment: Inhibition of recombinant human His-tagged FGFR4 ([…] residues) expressed in baculovirus expression system using Tyr 04 as substrate at 10 uM incubated for 60 mins by Z'-Lyte assay relative to control
[5] = Half life in Sprague-Dawley rat at 0.5 mg/kg, iv or 2 mg/kg, po; format: ADME, organism-based; conditions: in vivo
[6] = biological target: Dual specificity protein kinase CLK2 (Homo sapiens) (UniProt P49760); experiment: Inhibition of recombinant human GST-tagged CLK2 (137 to 498 residues) expressed in baculovirus expression system using Ser/Thr 06 as substrate at 10 uM incubated for 60 mins by Z'-Lyte assay relative to control
[7] = Inhibition of necroptosis in mouse L929 cells assessed as reduction in TNFalpha/BV6/zVAD-fmk-induced cell death incubated for 18 hrs by Cell Titer Glo luminescent cell viability assay; format: functional, cell-based; conditions: L929, 18 h
[8] = biological target: Macrophage colony-stimulating factor 1 receptor (Homo sapiens) (UniProt P07333); experiment: Inhibition of recombinant human His-tagged CSF1R (538 to 910 residues) expressed in baculovirus expression system using Tyr 01 as substrate at 10 uM incubated for 60 mins by Z'-Lyte assay relative to control
[9] = biological target: Protein kinase C zeta type (Homo sapiens) (UniProt Q05513); experiment: Inhibition of recombinant human untagged full length PKCzeta expressed in baculovirus expression system using Ser/Thr 07 as substrate at 10 uM incubated for 60 mins by Z'-lyte assay relative to control
[10] = biological target: G protein-coupled receptor kinase 6 (Homo sapiens) (UniProt P43250); experiment: Inhibition of recombinant human GST-tagged full length GRK6 expressed in baculovirus expression system using Ser/Thr 16 as substrate at 10 uM incubated for 60 mins by Z'-Lyte assay relative to control
[11] = biological target: Mitogen-activated protein kinase kinase kinase 5 (Homo sapiens) (UniProt Q99683); experiment: Inhibition of tracer 236 binding to recombinant human GST-tagged full length ASK1 expressed in baculovirus expression system at 10 uM incubated for 60 mins by Lanthascreen assay relative to control
[12] = biological target: Tyrosine-protein kinase ZAP-70 (Homo sapiens) (UniProt P43403); experiment: Inhibition of recombinant human His-tagged full length ZAP70 expressed in baculovirus expression system using Tyr 07 as substrate at 10 uM incubated for 60 mins by Z'-Lyte assay relative to control
[13] = biological target: Dual specificity protein kinase CLK4 (Homo sapiens) (UniProt Q9HAZ1); experiment: Inhibition of tracer 236 binding to recombinant human GST-tagged full length CLK4 expressed in baculovirus expression system at 10 uM incubated for 60 mins by Lanthascreen assay relative to control
[14] = biological target: Serine/threonine-protein kinase Nek6 (Homo sapiens) (UniProt Q9HC98); experiment: Inhibition of recombinant human GST-tagged full length NEK6 expressed in insect expression system using Ser/Thr 22 as substrate at 10 uM incubated for 60 mins by Z'-lyte assay relative to control
[15] = biological target: Serine/threonine-protein kinase mTOR (Homo sapiens) (UniProt P42345); experiment: Inhibition of recombinant human GST-tagged mTOR (1360 to 2549 residues) expressed in Escherichia coli expression system using Ser/Thr 11 as substrate at 10 uM incubated for 60 mins by Z'-Lyte assay relative to control
[16] = biological target: Serine/threonine-protein kinase Nek1 (Homo sapiens) (UniProt Q96PY6); experiment: Inhibition of recombinant human GST-tagged NEK1 (1 to 505 residues) expressed in baculovirus expression system using Ser/Thr 07 as substrate at 10 uM incubated for 60 mins by Z'-lyte assay relative to control
[17] = biological target: Tyrosine-protein kinase Tec (Homo sapiens) (UniProt P42680); experiment: Inhibition of tracer 178 binding to recombinant human His-tagged full length TEC expressed in baculovirus expression system at 10 uM incubated for 60 mins by Lanthascreen assay relative to control
[18] = biological target: Glycogen synthase kinase-3 alpha (Homo sapiens) (UniProt P49840); experiment: Inhibition of recombinant human GST-tagged full length GSK3alpha expressed in baculovirus expression system using Ser/Thr 09 as substrate at 10 uM incubated for 60 mins by Z'-Lyte assay relative to control
[19] = biological target: Cyclin-dependent kinase 7/ cyclin H (Homo sapiens) (UniProt P51946+P50613); experiment: Inhibition of recombinant human His-tagged full length CDK7/Cyclin H expressed in baculovirus expression system using CDK7/9tide as substrate at 10 uM incubated for 60 mins by Adapta assay relative to control
[20] = biological target: Tyrosine-protein kinase Fgr (Homo sapiens) (UniProt P09769); experiment: Inhibition of recombinant human C-terminal His-tagged full length FGR expressed in baculovirus expression system using Tyr 02 as substrate at 10 uM incubated for 60 mins by Z'-Lyte assay relative to control
[21] = biological target: Serine/threonine-protein kinase PAK 4 (Homo sapiens) (UniProt O96013); experiment: Inhibition of recombinant human His-tagged PAK4 (295 to 591 residues) expressed in baculovirus expression system using Ser/Thr 20 as substrate at 10 uM incubated for 60 mins by Z'-lyte assay relative to control
[22] = biological target: Eukaryotic elongation factor 2 kinase (Homo sapiens) (UniProt O00418); experiment: Inhibition of recombinant human GST-tagged full length EEF2K expressed in Escherichia coli expression system using Ser/Thr 24 as substrate at 10 uM incubated for 60 mins by Z'-Lyte assay relative to control
[23] = biological target: Myotonin-protein kinase (Homo sapiens) (UniProt Q09013); experiment: Inhibition of tracer 236 binding to recombinant human GST-tagged full length DMPK expressed in baculovirus expression system at 10 uM incubated for 60 mins by Lanthascreen assay relative to control
[24] = biological target: Tyrosine-protein kinase SYK (Homo sapiens) (UniProt P43405); experiment: Inhibition of recombinant human N-terminalGST-tagged full length SYK expressed in baculovirus expression system using Tyr 02 as substrate at 10 uM incubated for 60 mins by Z'-Lyte assay relative to control

Sequence of Tyrosine-protein kinase Tec (Homo sapiens) (P42680 whole entry): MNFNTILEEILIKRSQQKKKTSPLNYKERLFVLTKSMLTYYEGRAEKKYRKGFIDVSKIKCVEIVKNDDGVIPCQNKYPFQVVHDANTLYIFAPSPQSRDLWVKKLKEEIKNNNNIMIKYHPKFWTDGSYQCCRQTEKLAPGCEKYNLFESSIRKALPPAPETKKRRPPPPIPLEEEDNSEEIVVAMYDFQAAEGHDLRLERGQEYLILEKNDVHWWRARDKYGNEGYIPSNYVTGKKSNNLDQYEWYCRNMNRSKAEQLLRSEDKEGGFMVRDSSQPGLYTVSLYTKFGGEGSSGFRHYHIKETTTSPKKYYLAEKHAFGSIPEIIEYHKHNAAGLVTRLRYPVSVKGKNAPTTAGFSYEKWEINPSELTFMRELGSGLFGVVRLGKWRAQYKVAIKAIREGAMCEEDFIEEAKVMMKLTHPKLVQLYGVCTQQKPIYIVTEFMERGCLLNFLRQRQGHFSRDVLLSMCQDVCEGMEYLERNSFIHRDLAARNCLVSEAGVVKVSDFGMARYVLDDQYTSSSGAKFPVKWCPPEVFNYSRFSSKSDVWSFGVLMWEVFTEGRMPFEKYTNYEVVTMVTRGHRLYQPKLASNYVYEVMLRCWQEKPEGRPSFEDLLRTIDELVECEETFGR
Sequence of Cyclin-dependent kinase 5/CDK5 activator 1 (Homo sapiens) (Q00535 whole entry): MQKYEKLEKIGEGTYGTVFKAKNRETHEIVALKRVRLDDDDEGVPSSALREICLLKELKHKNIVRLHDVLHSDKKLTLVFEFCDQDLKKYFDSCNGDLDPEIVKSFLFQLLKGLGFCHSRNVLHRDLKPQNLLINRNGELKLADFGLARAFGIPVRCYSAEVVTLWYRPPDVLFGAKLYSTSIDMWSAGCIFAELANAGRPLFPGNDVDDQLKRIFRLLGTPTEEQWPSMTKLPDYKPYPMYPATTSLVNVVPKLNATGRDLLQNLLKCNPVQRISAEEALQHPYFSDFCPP
Sequence of Cyclin-dependent kinase 5/CDK5 activator 1 (Homo sapiens) (Q15078 99-307 partner limits assumed): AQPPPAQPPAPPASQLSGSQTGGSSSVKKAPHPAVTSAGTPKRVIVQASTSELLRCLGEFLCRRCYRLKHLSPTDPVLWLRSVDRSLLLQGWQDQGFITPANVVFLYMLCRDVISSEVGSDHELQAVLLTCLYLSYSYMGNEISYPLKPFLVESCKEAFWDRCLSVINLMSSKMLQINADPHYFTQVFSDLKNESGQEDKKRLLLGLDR
Sequence of Glycogen synthase kinase-3 alpha (Homo sapiens) (P49840 whole entry, looked up): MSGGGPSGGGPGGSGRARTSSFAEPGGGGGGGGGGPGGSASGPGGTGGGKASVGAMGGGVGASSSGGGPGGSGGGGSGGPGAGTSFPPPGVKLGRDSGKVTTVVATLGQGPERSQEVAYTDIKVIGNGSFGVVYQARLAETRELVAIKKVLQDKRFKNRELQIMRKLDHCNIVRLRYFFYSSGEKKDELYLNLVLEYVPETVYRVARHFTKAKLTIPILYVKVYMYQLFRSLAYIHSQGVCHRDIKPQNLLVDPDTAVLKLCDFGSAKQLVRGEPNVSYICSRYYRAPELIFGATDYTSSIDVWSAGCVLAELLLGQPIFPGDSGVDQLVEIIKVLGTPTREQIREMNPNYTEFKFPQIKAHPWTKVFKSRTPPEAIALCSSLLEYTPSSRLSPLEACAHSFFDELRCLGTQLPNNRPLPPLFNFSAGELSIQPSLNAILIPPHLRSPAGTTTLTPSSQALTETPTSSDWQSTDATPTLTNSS
Sequence of Tyrosine-protein kinase Fgr (Homo sapiens) (P09769 2-529 limits assumed): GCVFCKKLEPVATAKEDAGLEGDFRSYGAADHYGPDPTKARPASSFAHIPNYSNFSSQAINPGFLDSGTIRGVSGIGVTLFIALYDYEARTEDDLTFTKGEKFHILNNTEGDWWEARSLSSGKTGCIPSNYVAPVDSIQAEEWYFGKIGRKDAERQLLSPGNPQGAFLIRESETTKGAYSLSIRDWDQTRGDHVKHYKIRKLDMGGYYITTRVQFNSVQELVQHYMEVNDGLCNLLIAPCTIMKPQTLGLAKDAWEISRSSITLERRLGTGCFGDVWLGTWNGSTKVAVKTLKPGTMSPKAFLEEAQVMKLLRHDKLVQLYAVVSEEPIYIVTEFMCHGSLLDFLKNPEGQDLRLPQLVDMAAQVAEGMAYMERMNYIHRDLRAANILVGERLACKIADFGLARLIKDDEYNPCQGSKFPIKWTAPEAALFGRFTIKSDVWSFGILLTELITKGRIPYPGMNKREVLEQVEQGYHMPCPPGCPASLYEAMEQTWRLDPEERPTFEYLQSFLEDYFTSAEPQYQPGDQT
Sequence of Macrophage colony-stimulating factor 1 receptor (Homo sapiens) (P07333 whole entry, the tested form may be a part): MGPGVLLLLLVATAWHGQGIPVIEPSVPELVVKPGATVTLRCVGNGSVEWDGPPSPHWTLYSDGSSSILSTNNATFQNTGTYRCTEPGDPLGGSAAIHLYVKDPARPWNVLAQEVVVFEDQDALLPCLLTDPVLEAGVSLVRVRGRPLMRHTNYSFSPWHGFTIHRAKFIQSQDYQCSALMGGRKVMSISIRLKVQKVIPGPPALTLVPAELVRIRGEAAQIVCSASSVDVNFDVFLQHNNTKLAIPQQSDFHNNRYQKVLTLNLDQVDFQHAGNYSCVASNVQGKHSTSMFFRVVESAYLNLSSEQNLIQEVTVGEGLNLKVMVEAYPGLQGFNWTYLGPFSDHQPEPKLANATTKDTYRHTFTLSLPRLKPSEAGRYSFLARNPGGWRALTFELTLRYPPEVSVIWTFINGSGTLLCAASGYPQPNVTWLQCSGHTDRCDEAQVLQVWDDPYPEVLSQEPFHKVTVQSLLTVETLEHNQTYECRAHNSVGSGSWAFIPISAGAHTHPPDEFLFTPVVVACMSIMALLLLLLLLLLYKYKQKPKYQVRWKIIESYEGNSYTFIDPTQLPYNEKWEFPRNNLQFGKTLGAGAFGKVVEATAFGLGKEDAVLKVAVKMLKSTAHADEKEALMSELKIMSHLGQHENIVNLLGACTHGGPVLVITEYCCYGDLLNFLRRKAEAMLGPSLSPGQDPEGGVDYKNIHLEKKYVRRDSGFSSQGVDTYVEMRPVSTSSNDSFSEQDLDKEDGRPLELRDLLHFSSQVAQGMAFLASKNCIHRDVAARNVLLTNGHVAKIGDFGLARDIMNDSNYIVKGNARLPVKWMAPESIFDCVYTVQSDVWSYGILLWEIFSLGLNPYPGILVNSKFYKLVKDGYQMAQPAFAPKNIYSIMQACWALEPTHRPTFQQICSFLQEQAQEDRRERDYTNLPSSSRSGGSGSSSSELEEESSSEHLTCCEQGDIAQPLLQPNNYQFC
Sequence of Myotonin-protein kinase (Homo sapiens) (Q09013 whole entry): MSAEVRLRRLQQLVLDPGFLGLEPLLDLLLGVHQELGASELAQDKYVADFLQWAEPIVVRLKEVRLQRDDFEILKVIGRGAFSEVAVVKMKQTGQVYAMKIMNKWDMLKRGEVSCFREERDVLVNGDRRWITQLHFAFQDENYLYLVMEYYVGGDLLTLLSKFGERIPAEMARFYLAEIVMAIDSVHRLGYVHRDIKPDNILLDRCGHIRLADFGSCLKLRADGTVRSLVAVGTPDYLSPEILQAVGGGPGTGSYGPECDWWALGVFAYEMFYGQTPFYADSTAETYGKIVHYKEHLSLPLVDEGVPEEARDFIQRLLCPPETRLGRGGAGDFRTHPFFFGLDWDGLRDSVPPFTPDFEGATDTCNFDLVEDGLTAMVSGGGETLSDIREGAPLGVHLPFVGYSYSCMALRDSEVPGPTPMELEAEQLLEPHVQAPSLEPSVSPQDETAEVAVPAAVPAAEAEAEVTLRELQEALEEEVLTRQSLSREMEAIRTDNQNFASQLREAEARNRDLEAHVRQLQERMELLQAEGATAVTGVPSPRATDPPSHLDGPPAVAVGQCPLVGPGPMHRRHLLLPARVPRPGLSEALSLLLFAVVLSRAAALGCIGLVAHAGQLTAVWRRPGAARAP
Sequence of Fibroblast growth factor receptor 4 (Homo sapiens) (P22455 22-802 limits assumed): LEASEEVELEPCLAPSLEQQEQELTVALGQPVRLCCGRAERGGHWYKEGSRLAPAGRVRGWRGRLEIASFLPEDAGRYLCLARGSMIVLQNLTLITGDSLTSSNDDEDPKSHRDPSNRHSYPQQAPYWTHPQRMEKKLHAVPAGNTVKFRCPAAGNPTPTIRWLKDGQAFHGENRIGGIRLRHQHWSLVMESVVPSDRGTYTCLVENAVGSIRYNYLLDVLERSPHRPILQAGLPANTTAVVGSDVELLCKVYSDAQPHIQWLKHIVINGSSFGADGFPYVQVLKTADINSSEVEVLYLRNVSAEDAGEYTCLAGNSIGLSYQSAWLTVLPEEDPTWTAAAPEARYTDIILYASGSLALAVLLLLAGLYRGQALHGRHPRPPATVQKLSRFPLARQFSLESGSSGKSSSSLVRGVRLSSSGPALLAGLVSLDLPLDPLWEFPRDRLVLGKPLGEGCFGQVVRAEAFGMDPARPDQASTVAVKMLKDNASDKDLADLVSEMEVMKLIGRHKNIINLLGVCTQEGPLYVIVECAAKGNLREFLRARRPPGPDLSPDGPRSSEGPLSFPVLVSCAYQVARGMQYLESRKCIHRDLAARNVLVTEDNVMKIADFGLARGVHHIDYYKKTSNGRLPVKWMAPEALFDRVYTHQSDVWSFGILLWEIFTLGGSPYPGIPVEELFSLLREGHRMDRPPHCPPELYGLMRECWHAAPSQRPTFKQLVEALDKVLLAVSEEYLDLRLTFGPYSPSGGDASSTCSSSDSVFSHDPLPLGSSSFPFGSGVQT
Sequence of Dual specificity protein kinase CLK2 (Homo sapiens) (P49760 whole entry, looked up, the tested form may be a part): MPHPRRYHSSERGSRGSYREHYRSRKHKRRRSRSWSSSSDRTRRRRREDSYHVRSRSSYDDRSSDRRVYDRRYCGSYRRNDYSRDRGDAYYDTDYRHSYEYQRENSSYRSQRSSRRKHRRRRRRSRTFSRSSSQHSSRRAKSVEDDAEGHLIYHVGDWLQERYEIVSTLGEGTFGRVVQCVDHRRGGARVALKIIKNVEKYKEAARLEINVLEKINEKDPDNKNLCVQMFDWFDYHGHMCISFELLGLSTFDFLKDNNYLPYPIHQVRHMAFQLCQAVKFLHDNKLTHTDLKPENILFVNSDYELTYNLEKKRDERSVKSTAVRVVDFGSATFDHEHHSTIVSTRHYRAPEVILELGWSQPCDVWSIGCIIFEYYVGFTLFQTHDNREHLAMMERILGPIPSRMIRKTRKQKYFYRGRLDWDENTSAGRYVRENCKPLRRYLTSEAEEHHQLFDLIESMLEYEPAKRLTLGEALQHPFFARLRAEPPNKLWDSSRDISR

**Q.** For `CN1C(=O)[C@@H](NC(=O)c2n[nH]c3ncc(C(F)(F)C(F)(F)F)cc23)COc2ccccc21`, which inhibition [1] is on record?
**A.** Its inhibition is 2%.

**Q.** What about the inhibition [2] of the same molecule?
**A.** Its inhibition is 0.5%.

**Q.** And the inhibition [3]?
**A.** The inhibition was 14.5%.

**Q.** What about the inhibition [4] of the same molecule?
**A.** The inhibition was -7%.

**Q.** What about the half-life [5] of the same molecule?
**A.** The half-life was 4.8 h.

**Q.** What about the inhibition [6] of the same molecule?
**A.** Its inhibition is 24%.

**Q.** What about the EC50 [7] of the same molecule?
**A.** Its EC50 is 11 µM.

**Q.** And the inhibition [8]?
**A.** The inhibition was 15%.

**Q.** What about the inhibition [9] of the same molecule?
**A.** Its inhibition is 5.5%.

**Q.** And the inhibition [10]?
**A.** Its inhibition is -0.5%.

**Q.** What about the inhibition [11] of the same molecule?
**A.** The inhibition was 0.5%.

**Q.** What about the inhibition [12] of the same molecule?
**A.** The inhibition was -2%.

**Q.** What about the inhibition [13] of the same molecule?
**A.** Its inhibition is 18%.

**Q.** And the inhibition [14]?
**A.** The inhibition was 4%.

**Q.** And the inhibition [15]?
**A.** The inhibition was 1.5%.

**Q.** And the inhibition [16]?
**A.** Its inhibition is 9%.

**Q.** What about the inhibition [17] of the same molecule?
**A.** Its inhibition is -4.5%.

**Q.** What about the inhibition [18] of the same molecule?
**A.** The inhibition was 9%.

**Q.** What about the inhibition [19] of the same molecule?
**A.** Its inhibition is 14.5%.

**Q.** What about the inhibition [20] of the same molecule?
**A.** Its inhibition is 1.5%.

**Q.** And the inhibition [21]?
**A.** Its inhibition is 6%.

**Q.** And the inhibition [22]?
**A.** The inhibition was 6%.

**Q.** What about the inhibition [23] of the same molecule?
**A.** The inhibition was -1%.

**Q.** And the inhibition [24]?
**A.** The inhibition was 6%.
